This is an account of results in ChEMBL document CHEMBL1157539, “Thousands of chemical starting points for antimalarial lead identification” (Nature, 2010).

For this assay, the system named is Plasmodium falciparum. The assay is described as follows: GSK_TCMDC: Inhibition of Plasmodium falciparum 3D7 in whole erythrocytes, using parasite LDH activity as an index of growth. In kind it is functional, organism-based. The conditions noted are these: Plasmodium falciparum, 3D7.

The compound `O=C(/C=C/c1ccc(Cl)c(Cl)c1)NCCCCCN1CC[C@H](NC(=O)c2sc3ccccc3c2Cl)C1` showed an XC50 of 809 nM.

As to `O=C(Nc1cccc(-c2nn3ccccc3c2-c2ccnc(Nc3cccc(F)c3)n2)c1)c1c(F)ccc(F)c1F`, the XC50 amounted to 856 nM.

`COCCn1c(-c2cccc(Cl)c2)nn(-c2ccc([N+](=O)[O-])cc2Cl)c1=S` registered an XC50 of 737 nM. Then `COc1ccc(CNC2CCN(C)CC2)cc1-c1ccc(S(=O)(=O)NCc2ccccc2)cc1`, with 604 nM; and `COc1ccc(Br)cc1/C=C/C(=O)Nc1ccc(C2CCN(C)CC2)cc1`, with 502 nM; and `Cc1cc(N[C@@H](Cc2ccccc2)C(=O)NCCc2ccccc2)nc(NCCc2ccccc2)n1`, with 850 nM. `O=c1nc2[nH]c3ccccc3n2c(=O)[nH]1` showed an XC50 of 174 nM. On to `N#Cc1ccc(-c2ccc(C(=O)NCCCCN3CCC(c4ccc5c(c4OCc4ccccn4)CCCC5)CC3)cc2)cc1`, for which the XC50 amounted to 824 nM. As for `COc1ccc(NC(=O)[C@H](Cc2ccccc2)Nc2cc(C)nc(Nc3ccccc3)n2)cc1`, the figure is 1010 nM; as for `COC(=O)c1ccc(C2OC3(C(=O)c4ccccc4C3=O)C(OC)=C2Cl)cc1C(C)=O` (stereo not drawn), 546 nM; as for `Cc1ccc2nc(-c3ccc(C(=O)NC4CCN(Cc5ccccc5)CC4)cc3)[nH]c2c1C`, 729 nM.

For `CC(C)CN1CCC(COc2ccc3ncn(-c4cc(O[C@H](C)c5ccccc5C(F)(F)F)c(C(N)=O)s4)c3c2)CC1`, the XC50 is 618 nM.

As for `O=C(Nc1ccc(Cl)c(Cl)c1)Nc1cc(C(F)(F)F)ccc1Cl`, the XC50 is 1440 nM. `CCNc1cc(C(=O)N[C@@H](Cc2ccccc2)[C@H](O)CNCCC(C)c2ccccc2)cc(N2CCCC2=O)c1` (stereo partly drawn): the XC50 came out at 511 nM. Then `Cc1ccc(F)c(OCC2CCN(c3ccc(C(=O)NC4CC4)cn3)CC2)c1`, with 733 nM. Regarding `C/N=C(/Nc1c(Cl)cccc1Cl)N(C)C`, the XC50 was determined as 820 nM. Then `CNCCNCc1cccc(-c2ccc(-c3nc4ccccc4[nH]3)cc2)c1`, with 743 nM; and `CCCCN1CCCN(Cc2cccc(NC(=O)c3ccc(-c4ccccc4)cc3)c2)CC1`, with 1030 nM.

Consider `c1cc(CNCCN2CCNCC2)cc(-c2cccc(-c3nc4ccccc4[nH]3)c2)c1`, for which the XC50 turned out to be 959 nM. Then `CC(=O)Nc1ccc(C(=O)Nc2cccc(-c3cccc(-c4nc5ccccc5[nH]4)c3)c2)cn1`, with 204 nM; and `Nc1c2c(nc3ccccc13)C(=Cc1ccc(O)cc1)CCC2`, with 176 nM; and `O=C(/C=C/c1ccc(Cl)c(Cl)c1)NCCCCCN1C2CCC1CC(c1c[nH]c3ccccc13)C2` (stereo not drawn), with 840 nM.

In the case of `CN(C)CCOc1ccc(-n2c(-c3nonc3N)nc3cncc(-c4ccc(F)cc4)c32)cc1`, the XC50 stood at 866 nM.

Consider `COc1ccc(CN2CCCC(Nc3ccc(F)c(F)c3)C2)c(O)c1` (stereo not drawn), for which the XC50 worked out at 1090 nM. As for `COc1ccc(CN(C)CCCOc2ccc(NC(=O)C=Cc3ccc(C(C)(C)C)cc3)cc2)cc1OC`, the figure is 855 nM; as for `COc1ccc(C(=O)C2CCN(CCCCNC(=O)c3ccc(NC(=O)c4cc(Cl)cc(Cl)c4)cc3)CC2)cc1`, 173 nM; as for `NC1CCN(c2nc(NCCc3ccc(O)cc3)nc(NCc3ccccc3-c3ccc(C(F)(F)F)cc3)n2)CC1`, 746 nM. For the compound `CC(=O)c1ccc(NC(=O)Nc2ccc3nccc(N4CCN(C)CC4)c3c2)cc1`, the XC50 is 432 nM. Take `CC(C)S(=O)(=O)N1CCN(Cc2ccc3c(c2)nc(NC(=O)c2ccsc2)n3C[C@H](O)c2ccccc2)CC1`: the XC50 was determined as 271 nM. For the compound `CC[C@H](C)CNC(=O)c1cncc(-c2ccc(CNC3Cc4ccccc4C3)cc2)c1`, the XC50 was determined as 829 nM. As for `COc1cc(Nc2nccc(N3CCC(NC(=O)Nc4cc(C)ccc4C)C3)n2)cc(OC)c1OC` (stereo not drawn), the figure is 1120 nM; as for `COc1ccc2cc(-c3nc(-c4c(Cl)cccc4Cl)[nH]c3-c3ccnc(NCCCN4CCN(C)CC4)c3)ccc2c1`, 708 nM; as for `CC(C)c1ccc(NC(=O)c2ccc(C(=O)NC3CCN(CC4CCCCC4)C3)cc2)cc1` (stereo not drawn), 792 nM.
